For four compounds, inhibition results are on record in PMC7736581, “Activation of the IRE1 RNase through remodeling of the kinase front pocket by ATP-competitive ligands” (Nature Communications, 2020).

Holding throughout (experiment): biochemical
One test has as its target T1, PERK (Homo sapiens, UniProt Q9NZJ5).
T1 construct: gene EIF2AK3
T1 sequence (Q9NZJ5 1-1116): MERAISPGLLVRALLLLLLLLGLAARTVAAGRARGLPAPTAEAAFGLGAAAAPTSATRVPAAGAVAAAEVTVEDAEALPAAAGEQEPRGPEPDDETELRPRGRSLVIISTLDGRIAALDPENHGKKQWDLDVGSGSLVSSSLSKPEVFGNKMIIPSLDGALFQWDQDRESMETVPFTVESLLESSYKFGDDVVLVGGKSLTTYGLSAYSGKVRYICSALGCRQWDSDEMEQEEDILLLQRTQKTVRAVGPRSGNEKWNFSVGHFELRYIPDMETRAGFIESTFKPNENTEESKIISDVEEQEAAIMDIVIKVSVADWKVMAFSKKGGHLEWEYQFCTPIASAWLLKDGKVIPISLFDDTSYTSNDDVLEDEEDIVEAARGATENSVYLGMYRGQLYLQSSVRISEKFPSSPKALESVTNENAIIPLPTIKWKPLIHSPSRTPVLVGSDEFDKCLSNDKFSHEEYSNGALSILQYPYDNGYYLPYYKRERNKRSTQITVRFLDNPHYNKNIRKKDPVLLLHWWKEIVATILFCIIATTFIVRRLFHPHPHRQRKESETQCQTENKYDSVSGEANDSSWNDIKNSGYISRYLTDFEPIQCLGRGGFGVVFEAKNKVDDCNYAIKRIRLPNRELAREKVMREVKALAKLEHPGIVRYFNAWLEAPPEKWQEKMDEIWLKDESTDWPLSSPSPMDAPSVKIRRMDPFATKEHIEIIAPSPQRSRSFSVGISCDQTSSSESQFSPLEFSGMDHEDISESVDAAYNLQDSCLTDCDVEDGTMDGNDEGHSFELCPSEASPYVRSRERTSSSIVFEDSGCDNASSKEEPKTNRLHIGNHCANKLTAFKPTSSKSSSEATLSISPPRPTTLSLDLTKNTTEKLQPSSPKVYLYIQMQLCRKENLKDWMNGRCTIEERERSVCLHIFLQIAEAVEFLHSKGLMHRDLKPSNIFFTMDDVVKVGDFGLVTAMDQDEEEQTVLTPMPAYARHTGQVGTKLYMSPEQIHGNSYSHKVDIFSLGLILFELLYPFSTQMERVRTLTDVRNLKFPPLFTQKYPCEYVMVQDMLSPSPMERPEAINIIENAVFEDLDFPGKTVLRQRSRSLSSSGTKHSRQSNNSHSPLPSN
The arrangement: 33P incorporation kinase assay (Reaction Biology), myelin basic protein substrate. The conditions noted are these: 10 uM ATP. The source says:
We set out to identify allosteric activators of IRE1 RNase by screening internal compound libraries for binding to the kinase, using a published ATP-competitive TR-FRET assay. We then tested kinase binders to assess RNase modulation in an IRE1-specific kinetic RNA cleavage assay that uses the cytoplasmic construct IRE1-LKR (Q470-L977) (Supplementary Fig. 1a). […] Next, we tested these compounds in KMS-11 multiple myeloma cells, known to express functional IRE1 and strongly depend on the IRE1 pathway due to hyper-production of immunoglobulins in the ER[31]. We measured mRNA levels of XBP1s and the well-established RIDD target DGAT2[22] (Fig. 1c and Supplementary Fig. 1c, respectively) using a branched DNA (bDNA) assay. […] Importantly, neither G-9807 nor G-1749 inhibit PERK (Supplementary Table 1).

The target of the next test is EphA1 (Homo sapiens, UniProt P21709). The arrangement: Invitrogen kinase panel: Z'Lyte activity (ATP at Km) or LanthaScreen competitive ATP-site binding, percent inhibition.
Chain of EphA1 (P21709 whole entry): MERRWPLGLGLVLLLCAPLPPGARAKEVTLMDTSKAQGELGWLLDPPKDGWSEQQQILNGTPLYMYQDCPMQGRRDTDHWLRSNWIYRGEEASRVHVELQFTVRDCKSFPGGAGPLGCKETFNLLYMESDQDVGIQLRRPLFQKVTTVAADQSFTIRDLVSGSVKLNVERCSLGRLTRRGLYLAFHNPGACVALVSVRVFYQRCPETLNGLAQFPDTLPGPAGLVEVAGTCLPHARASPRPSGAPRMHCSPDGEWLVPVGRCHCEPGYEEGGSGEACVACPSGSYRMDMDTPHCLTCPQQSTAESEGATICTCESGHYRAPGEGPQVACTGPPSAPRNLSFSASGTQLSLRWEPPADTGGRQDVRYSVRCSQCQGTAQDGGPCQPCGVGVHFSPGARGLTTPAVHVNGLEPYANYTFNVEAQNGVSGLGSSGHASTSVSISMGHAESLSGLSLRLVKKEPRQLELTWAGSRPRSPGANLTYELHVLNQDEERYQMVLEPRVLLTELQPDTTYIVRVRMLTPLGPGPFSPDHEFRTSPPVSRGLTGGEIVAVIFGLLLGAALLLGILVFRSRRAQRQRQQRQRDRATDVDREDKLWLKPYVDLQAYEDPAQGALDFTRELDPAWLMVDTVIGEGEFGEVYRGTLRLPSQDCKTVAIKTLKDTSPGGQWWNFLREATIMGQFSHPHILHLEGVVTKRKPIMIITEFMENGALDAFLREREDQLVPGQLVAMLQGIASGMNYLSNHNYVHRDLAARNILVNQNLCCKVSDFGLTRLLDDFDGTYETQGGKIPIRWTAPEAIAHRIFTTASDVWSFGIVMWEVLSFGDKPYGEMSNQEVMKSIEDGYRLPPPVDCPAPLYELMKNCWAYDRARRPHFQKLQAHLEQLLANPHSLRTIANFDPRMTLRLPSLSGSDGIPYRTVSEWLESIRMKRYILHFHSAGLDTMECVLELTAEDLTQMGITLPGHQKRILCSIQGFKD
The target in a further test is HIPK4 (Homo sapiens, UniProt Q8NE63). The arrangement: Invitrogen kinase panel: Z'Lyte activity (ATP at Km) or LanthaScreen competitive ATP-site binding, percent inhibition.
Chain of HIPK4 (Q8NE63 whole entry): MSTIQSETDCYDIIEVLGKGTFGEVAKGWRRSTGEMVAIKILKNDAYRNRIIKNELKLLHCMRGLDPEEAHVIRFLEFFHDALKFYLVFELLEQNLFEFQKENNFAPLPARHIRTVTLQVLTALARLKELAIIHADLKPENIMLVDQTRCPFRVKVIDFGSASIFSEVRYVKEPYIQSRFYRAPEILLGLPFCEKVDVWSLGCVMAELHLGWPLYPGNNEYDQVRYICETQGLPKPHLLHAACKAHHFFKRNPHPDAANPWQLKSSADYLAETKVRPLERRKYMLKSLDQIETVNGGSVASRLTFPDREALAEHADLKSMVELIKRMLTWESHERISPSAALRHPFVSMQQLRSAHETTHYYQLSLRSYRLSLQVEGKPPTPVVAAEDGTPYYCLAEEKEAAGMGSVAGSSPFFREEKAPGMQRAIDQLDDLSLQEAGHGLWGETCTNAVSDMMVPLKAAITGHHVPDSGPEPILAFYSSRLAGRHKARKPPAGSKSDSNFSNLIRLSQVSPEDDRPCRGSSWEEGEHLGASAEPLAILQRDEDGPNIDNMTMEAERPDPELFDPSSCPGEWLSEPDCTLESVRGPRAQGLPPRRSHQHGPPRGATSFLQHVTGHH
Another test deals with T2, IKK_alpha (Homo sapiens, UniProt O15111).
T2 construct: gene CHUK
T2 sequence (O15111 whole entry): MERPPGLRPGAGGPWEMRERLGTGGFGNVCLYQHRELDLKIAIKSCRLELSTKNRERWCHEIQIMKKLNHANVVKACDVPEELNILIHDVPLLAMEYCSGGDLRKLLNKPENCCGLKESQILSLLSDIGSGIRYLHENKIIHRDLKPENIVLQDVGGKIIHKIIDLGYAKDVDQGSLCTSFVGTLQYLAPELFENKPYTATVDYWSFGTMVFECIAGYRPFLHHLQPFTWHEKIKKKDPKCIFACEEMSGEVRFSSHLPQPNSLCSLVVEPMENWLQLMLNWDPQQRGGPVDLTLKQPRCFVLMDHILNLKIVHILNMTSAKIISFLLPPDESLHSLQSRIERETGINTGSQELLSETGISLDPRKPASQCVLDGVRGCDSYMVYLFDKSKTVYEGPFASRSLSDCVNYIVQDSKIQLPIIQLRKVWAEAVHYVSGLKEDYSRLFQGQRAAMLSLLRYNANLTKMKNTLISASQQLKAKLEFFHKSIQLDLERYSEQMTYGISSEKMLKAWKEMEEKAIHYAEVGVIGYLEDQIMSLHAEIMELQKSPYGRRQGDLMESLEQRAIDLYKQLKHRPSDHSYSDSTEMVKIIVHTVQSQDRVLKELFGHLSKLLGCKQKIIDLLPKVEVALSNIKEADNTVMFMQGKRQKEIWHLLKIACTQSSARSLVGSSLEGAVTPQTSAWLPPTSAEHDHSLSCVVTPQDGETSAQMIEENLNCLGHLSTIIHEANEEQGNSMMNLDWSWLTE
The arrangement: Invitrogen kinase panel: Z'Lyte activity (ATP at Km) or LanthaScreen competitive ATP-site binding, percent inhibition.

In the next test the target is HIPK2 (Homo sapiens, UniProt Q9H2X6). Also on record: Invitrogen kinase panel: Z'Lyte activity (ATP at Km) or LanthaScreen competitive ATP-site binding, percent inhibition.
Chain of HIPK2 (Q9H2X6 whole entry): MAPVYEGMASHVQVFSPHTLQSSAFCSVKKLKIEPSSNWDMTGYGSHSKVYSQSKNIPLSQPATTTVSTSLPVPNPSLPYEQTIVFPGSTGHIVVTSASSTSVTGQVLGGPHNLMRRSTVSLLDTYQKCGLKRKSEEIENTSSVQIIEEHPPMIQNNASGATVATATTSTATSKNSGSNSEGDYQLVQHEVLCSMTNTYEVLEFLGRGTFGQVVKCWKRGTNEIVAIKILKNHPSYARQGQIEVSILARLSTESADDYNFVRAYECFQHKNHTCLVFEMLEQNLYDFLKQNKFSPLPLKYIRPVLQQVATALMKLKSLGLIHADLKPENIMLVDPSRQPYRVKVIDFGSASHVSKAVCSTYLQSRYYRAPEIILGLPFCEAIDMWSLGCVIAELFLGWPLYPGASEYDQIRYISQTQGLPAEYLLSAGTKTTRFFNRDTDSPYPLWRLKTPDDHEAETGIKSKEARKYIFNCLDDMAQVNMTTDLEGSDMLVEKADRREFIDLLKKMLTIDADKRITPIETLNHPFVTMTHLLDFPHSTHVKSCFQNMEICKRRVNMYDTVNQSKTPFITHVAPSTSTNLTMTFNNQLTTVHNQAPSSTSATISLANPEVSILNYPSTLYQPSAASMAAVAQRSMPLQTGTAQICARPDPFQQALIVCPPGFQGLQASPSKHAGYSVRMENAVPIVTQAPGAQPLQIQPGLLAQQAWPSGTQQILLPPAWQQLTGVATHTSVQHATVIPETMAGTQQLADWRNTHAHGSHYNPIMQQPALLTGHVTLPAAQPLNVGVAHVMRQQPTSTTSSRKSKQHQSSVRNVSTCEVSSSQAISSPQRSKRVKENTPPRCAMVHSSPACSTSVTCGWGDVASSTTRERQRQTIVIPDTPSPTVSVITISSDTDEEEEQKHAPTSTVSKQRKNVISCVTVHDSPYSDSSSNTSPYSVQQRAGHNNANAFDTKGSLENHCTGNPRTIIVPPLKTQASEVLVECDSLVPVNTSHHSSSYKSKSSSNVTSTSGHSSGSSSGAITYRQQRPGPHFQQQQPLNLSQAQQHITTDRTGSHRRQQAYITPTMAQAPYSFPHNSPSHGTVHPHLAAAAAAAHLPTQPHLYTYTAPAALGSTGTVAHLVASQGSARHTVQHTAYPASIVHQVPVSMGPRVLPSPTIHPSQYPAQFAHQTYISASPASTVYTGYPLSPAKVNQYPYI
Another test concerns the target InsR (Homo sapiens, UniProt P06213). The arrangement: Invitrogen kinase panel: Z'Lyte activity (ATP at Km) or LanthaScreen competitive ATP-site binding, percent inhibition.
The target in another test is T3, MYLK(smMLCK) (Homo sapiens, UniProt Q15746).
T3 construct: smMLCK
Also on record: Invitrogen kinase panel: Z'Lyte activity (ATP at Km) or LanthaScreen competitive ATP-site binding, percent inhibition.

A further test concerns the target T4, p38_gamma (Homo sapiens, UniProt P53778).
T4 construct: gene MAPK12
Also on record: Invitrogen kinase panel: Z'Lyte activity (ATP at Km) or LanthaScreen competitive ATP-site binding, percent inhibition.

In another test the target is SGK3 (Homo sapiens, UniProt Q96BR1). The arrangement: Invitrogen kinase panel: Z'Lyte activity (ATP at Km) or LanthaScreen competitive ATP-site binding, percent inhibition.
Another test addresses NEK4 (Homo sapiens, UniProt P51957). Also on record: Invitrogen kinase panel: Z'Lyte activity (ATP at Km) or LanthaScreen competitive ATP-site binding, percent inhibition.
In another test the target is T5, PRAK (Homo sapiens, UniProt Q8IW41).
T5 construct: gene MAPKAPK5
T5 sequence (Q8IW41 whole entry): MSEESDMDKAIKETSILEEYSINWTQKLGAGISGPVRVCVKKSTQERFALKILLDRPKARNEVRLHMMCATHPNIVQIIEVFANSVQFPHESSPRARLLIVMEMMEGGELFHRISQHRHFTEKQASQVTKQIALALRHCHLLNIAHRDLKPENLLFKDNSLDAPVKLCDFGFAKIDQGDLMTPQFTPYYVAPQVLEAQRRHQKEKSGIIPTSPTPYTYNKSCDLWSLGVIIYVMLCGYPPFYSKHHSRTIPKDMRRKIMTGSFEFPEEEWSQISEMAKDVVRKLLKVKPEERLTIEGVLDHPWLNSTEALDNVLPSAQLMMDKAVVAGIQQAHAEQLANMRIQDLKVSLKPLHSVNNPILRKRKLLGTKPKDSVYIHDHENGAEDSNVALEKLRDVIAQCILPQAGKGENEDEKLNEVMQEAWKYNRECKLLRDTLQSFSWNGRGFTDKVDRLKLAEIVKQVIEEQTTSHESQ
The arrangement: Invitrogen kinase panel: Z'Lyte activity (ATP at Km) or LanthaScreen competitive ATP-site binding, percent inhibition.

A further test addresses CDK7/cyclinH (Homo sapiens, UniProt P50613). The arrangement: Invitrogen kinase panel: Z'Lyte activity (ATP at Km) or LanthaScreen competitive ATP-site binding, percent inhibition.
Another test concerns the target MAP4K4 (Homo sapiens, UniProt O95819). The arrangement: Invitrogen kinase panel: Z'Lyte activity (ATP at Km) or LanthaScreen competitive ATP-site binding, percent inhibition.

Chain of CDK7/cyclinH (P50613 whole entry): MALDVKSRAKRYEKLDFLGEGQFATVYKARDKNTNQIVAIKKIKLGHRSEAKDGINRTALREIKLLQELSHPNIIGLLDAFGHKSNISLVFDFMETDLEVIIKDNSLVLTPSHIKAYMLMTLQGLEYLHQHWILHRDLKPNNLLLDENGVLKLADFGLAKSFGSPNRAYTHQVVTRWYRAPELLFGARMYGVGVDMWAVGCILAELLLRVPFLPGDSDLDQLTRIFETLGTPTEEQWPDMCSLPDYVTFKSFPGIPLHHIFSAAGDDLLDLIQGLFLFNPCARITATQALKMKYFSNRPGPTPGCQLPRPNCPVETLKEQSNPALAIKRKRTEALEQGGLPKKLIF
Chain of CDK7/cyclinH (P51946 whole entry partner): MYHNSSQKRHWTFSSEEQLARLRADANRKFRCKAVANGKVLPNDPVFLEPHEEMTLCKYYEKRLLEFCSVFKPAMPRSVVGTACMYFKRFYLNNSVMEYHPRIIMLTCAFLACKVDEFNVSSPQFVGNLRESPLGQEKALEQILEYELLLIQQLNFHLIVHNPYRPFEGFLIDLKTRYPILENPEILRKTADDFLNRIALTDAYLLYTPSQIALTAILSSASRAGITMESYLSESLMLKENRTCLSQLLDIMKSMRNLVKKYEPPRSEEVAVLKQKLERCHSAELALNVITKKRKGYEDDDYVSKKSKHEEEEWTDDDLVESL
T4 sequence (P53778 whole entry): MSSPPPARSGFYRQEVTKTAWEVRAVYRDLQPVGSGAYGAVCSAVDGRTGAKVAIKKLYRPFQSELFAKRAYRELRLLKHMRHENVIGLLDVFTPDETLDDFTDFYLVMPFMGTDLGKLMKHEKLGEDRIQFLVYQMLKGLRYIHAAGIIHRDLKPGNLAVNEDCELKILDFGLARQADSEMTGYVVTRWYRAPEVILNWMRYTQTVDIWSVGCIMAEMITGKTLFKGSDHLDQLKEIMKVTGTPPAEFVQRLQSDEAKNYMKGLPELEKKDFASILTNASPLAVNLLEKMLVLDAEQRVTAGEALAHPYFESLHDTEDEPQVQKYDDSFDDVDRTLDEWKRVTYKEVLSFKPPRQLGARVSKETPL

The term inhibition denotes the change of the read-out against control, counted positive when it falls. With `CCOC(=O)Nc1cccc2c(Oc3ncccc3-c3ccnc(N[C@H]4CCCNC4)n3)c(C)ccc12` [G-1749], the inhibition at 1 µM is 9.9% against PERK; 7% on EphA1; 3.8% at HIPK4; -3.5% on IKK_alpha; 3% at HIPK2; 2.5% on InsR. For the same compound, the inhibition at 1 µM was 1.5% on MYLK(smMLCK); 18% at p38_gamma; -5.5% on SGK3; 6% at NEK4; 0.5% on PRAK; 4.5% at CDK7/cyclinH. In addition, the inhibition at 1 µM on MAP4K4 turned out to be 31%.
As for `CC#CC(=O)Nc1cccc2c(Oc3ncccc3-c3ccnc(N[C@H]4CCCNC4)n3)c(C)ccc12` [G-7658], the inhibition at 1 µM on EphA1 is 6%; on HIPK4, 8%; at IKK_alpha, -2%; on HIPK2, 2.5%; on InsR, 3%; at MYLK(smMLCK), 6%. Also, the inhibition at 1 µM on p38_gamma was 16.5%; on SGK3 it was -2%; at NEK4 it was 5.5%; at PRAK it was -1%; on CDK7/cyclinH it was 7.5%; at MAP4K4 it was 21.5%.
On to `O=c1cc(-c2n[nH]c3ncc(-c4c(F)cccc4F)cc23)nc(N2CCC(O)CC2)[nH]1` [G-9807], for which, at PERK, the inhibition at 1 µM is 4.5%.
Same read-out and setting: for `Cc1ccc2c(NS(=O)(=O)c3ccccc3Cl)cccc2c1Oc1ncccc1-c1ccnc(N[C@H]2CCCNC2)n1` [AMG-18] the value was 5.4%.
